Results reported in patent US11091447B2, “UBE2K modulators and methods for their use” (Berg LLC, priority 2020, dated 2021).

How the values were obtained:
[1] = system: MV.4.11 cell (B myelomonocytic leukemia) line derived xenograft; assay: Anti-tumor efficacy in MV.4.11 cell line derived xenograft model; assay type: in vivo; settings: MV.4.11 xenograft, nude mice
Experimental: Nude mice were implanted with 5×10^6 cells MV.4.11 cells subcutaneously in the right flank region. Mice were randomized into 3 groups (8 mice each) on day 12 post cells implantation. Vehicle control was administered with formulation of test compound and treatment group was administered with compound 131 at doses 75 and 150 mg/kg orally as a suspension in 0.1% Tween-80+0.5% CMC (carboxymethyl cellulose) twice daily (b.i.d) for 24 days. Tumor measurements and body weight were recorded thrice weekly during the study period till study completion (day 24).

MIA PaCa-2 cells = assay: Cellular viability assay (Cell Titer Fluor); assay type: cell-based; settings: Homo sapiens, MIA PaCa-2, 72 h, 72 hours incubation
Experimental: Cell viability were performed using the Cell Titer Fluor™ Assays (Promega G6080). MIA PaCa-2 cells are grown in DMEM media with 10% FBS, 1% Pen/Strep/Amphotericin B. Cells are trypsinized and counted using the Nexcelom cellometer. 5,000 cells/100 μl are plated per well in Greiner black/clear 96-well plates. Cells should be within 10 passages of stock vial for use in workflow. Three distinct lineages of these cells are cultured in parallel for multiple passages and 5 full plates of each lineage are seeded for one run. Small molecule compounds are provided as 100 mM stock solutions in DMSO. Dilution series plates are prepared using 1:3 dilution to achieve a 7 point concentration on a half log scale. After addition of compounds, cells are incubated 37° C., 5% CO2 for 72 hours.
For each test compound condition, triplicate technical replicates are used. For each reference compound, duplicate technical replicates are used. At the end of the 72-hour incubation, spent media is discarded. Then, 100 μl of GF-AFC diluted in DMEM (serum and phenol red-free) is added at 1:2000 concentration (5 μl/10 ml). Cells are incubated with reaction buffer for 1 h at 37° C. Fluorescence is then read on the plate reader with excitation wavelength of 390 nm and emission wavelength of 505 nm. All raw data are analyzed on Microsoft Excel 2010 and normalized to the DMSO vehicle control. Relative results are copied into GraphPad Prism for non-linear regression analysis and determination of IC50 and other dose curve parameters (min, max, Hill slope, etc.) using the log (inhibitor) vs. response equation. Values are as follows: A represents an IC50 of <[…], B represents an IC50 of 1 mM to 10 mM, C represents an IC50 of >10 mM.

K-562 tumor grafts = assay: Tumor growth inhibition in K-562 murine xenograft model; assay type: in vivo, Mouse (Mus musculus); settings: bid., p.o., K-562 xenograft, SCID Bg mice
Experimental: K-562 cancer cell line sourced from American Type Culture Collection (ATCC), USA. Cells were grown in IMDM medium (Sigma, Cat #30-2005) supplemented with 10% FBS (Invitrogen, Cat #10438-026), and 1% penicillin streptomycin (Invitrogen, Cat #15140-122). To establish xenograft, the cells were harvested by trypsinization when they reach around 70 to 80% confluence and 5 million K-562 cells were suspended in 200 μL of serum-free medium and mixed at 1:1 ratio with matrigel before implanting subcutaneously into the dorsal right flank of SCID Bg mice using a 1 mL BD syringe attached to a 24-gauge needle.
K-562 tumor grafts were measured after 10 days of cell inoculation once they became palpable. When the average tumor volume reached around 85 mm^3, animals were dosed after randomization into different treatment groups keeping tumor volume and number of animals in such a way so that the average tumor volume of each group remained same across the groups.
Compounds were formulated in 0.5% CMC+0.1% Tween 80 and given for 12 consecutive days BID with 8 hour gaps.

| Compound | tumor growth inhibition ([1]; 75 mg/kg orally twice daily (b.i.d) for 24 days) | tumor growth inhibition ([1]; 150 mg/kg orally twice daily (b.i.d) for 24 days) | IC50 (MIA PaCa-2 cells) | % Tumor Growth Inhibition (TGI) on day 3 (K-562 tumor grafts; 25 mg/kg/dose) | % Tumor Growth Inhibition (TGI) on day 5 (K-562 tumor grafts; 25 mg/kg/dose) | % Tumor Growth Inhibition (TGI) on day 8 (K-562 tumor grafts; 25 mg/kg/dose) | % Tumor Growth Inhibition (TGI) on day 10 (K-562 tumor grafts; 25 mg/kg/dose) | % Tumor Growth Inhibition (TGI) on day 12 (K-562 tumor grafts; 25 mg/kg/dose) | % Tumor Growth Inhibition (TGI) on day 3 (K-562 tumor grafts; 75 mg/kg/dose) | % Tumor Growth Inhibition (TGI) on day 5 (K-562 tumor grafts; 75 mg/kg/dose) | % Tumor Growth Inhibition (TGI) on day 8 (K-562 tumor grafts; 75 mg/kg/dose) | % Tumor Growth Inhibition (TGI) on day 10 (K-562 tumor grafts; 75 mg/kg/dose) | % Tumor Growth Inhibition (TGI) on day 12 (K-562 tumor grafts; 75 mg/kg/dose) |
| --- | --- | --- | --- | --- | --- | --- | --- | --- | --- | --- | --- | --- | --- |
| COc1ccc(F)cc1-c1nc(CNC(=O)c2cccc3c2OC(F)(F)O3)n[nH]1 [Compound 131] | 73.6% | 86.3% | < 1 µM | – | – | – | – | – | – | – | – | – | – |
| COc1ccc(F)cc1-c1nc(CNC(=O)c2cc(F)ccc2OC(F)(F)F)n[nH]1 [Compound 133] | – | – | < 1 µM | 43% | 37% | 48% | 45% | 43% | 47% | 56% | 61% | 60% | 64% |
